Laboratory results taken from paper PMC3394403 (2011).

Biological target: P-glycoprotein (P-gp, ABCB1, MDR1) (Homo sapiens, UniProt P08183)
Experiment: inhibition of […]-IAAP photoaffinity labeling of P-gp in crude membranes
Type: binding

P-glycoprotein (P-gp, ABCB1, MDR1), sequence (P08183 whole entry): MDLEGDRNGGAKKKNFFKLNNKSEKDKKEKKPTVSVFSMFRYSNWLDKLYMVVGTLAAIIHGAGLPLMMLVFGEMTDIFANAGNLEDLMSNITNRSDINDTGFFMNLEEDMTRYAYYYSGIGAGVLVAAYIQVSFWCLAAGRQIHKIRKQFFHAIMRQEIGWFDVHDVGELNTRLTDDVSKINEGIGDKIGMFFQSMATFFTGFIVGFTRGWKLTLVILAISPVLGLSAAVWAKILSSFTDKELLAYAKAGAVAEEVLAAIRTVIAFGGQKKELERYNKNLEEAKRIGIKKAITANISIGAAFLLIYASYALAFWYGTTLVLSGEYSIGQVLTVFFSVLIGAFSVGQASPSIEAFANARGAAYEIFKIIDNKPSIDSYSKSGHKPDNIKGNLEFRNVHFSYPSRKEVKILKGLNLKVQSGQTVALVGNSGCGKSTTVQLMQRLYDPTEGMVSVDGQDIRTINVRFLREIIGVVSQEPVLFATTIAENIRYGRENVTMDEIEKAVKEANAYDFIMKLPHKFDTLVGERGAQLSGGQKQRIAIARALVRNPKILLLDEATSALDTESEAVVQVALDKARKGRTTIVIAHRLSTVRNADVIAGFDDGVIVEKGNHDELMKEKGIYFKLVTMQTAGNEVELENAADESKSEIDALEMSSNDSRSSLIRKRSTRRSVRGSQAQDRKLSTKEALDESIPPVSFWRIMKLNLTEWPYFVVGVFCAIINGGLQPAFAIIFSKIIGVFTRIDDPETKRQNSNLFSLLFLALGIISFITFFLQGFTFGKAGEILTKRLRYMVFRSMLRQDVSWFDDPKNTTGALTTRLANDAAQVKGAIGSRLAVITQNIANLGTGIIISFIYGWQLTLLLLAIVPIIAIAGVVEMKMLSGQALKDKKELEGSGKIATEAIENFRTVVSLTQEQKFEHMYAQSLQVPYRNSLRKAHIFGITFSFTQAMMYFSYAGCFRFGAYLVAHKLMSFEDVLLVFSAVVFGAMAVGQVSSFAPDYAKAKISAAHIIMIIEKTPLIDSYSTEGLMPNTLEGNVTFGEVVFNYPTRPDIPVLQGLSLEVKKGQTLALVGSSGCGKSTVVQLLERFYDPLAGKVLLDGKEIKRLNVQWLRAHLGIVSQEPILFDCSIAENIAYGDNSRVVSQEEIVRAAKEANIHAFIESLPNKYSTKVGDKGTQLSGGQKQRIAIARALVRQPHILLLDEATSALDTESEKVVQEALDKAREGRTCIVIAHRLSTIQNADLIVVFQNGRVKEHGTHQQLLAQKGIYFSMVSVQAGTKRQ

## C=C(C)/C=C/C[C@@H](C)[C@H]1CC[C@@]2(C)[C@@H]3[C@@H](O)C=C4[C@@H](CC[C@H](O)C4(C)C)[C@]3(C=O)CC[C@]12C [kuguacin J]
  IC50: 8.3 ± 5.4 µM
